The subject of one test is NCI-H460. Kind of test: Anti-cancer screen (MTT), NCI-H460. Format: cell-based. Here is the method:
(§1) Experimental drugs are screened for anti-cancer activity in three cell lines for their GI50, TGI and LC50 values (using five concentrations for each compound). The cell lines are maintained in DMEM containing 10% fetal bovine serum. 96 well microtiter plates are inoculated with cells in 100 μL for 24 h at 37° C., 5% CO2, 95% air and 100% relative humidity. 5000 HCT116 cells/well, 5000 NCIH460 cells/well, 10000 U251 cells/well and 5000 MDAMB231 cells/well are plated. A separate plate with these cell lines is also inoculated to determine cell viability before the addition of the compounds (T0).
Following 24 hours incubation, experimental drugs are added to the 96 well plates. […] Compounds are dissolved in dimethylsulfoxide (DMSO) to make 20 mM stock solutions on the day of drug addition and frozen at −20° C. […] Standard drugs whose anti-cancer activity has been well documented and which are regularly used are doxorubicin and SAHA.
(§2) Cells are incubated with compounds for 48 hours followed by the addition of 10 μL 3-(4,5-Dimethyl-2-thiazolyl)-2,5-diphenyl-2H-tetrazolium (MTT) solution per well and a subsequent incubation at 37° C., 5% CO2, 95% air and 100% relative humidity, protected from light. After 4 hours, well contents are aspirated carefully followed by addition of 150 μL DMSO per well. Plates are agitated to ensure solution of the formazan crystals in dimethylsulphoxide and absorbance read at 570 nm.
Percent growth is calculated for each compound's concentration relative to the control and zero measurement wells (To; viability right before compound addition). If a test well's O.D. value is greater than the To measurement for that cell line % Growth=(test−zero)/(control−zero)×100
If a test well's O.D. value is lower than the T0 measurement for that cell line, […]

Another test concerns MCF-7. Kind of test: Anti-cancer screen (MTT), MCF-7. Format: cell-based. Here is the method: [The source words this procedure for another cell line and reports this cell line under the same test.] as §1
(§3) Following 24 hours incubation, experimental drugs are added to the 96 well plates. Each plate contains one of the above cell lines and the following in triplicate: five different concentrations (0.01, 0.1, 1, 10 and 100 μM) of four different compounds, appropriate dilutions of a cytotoxic standard and control (untreated) wells. Compounds are dissolved in dimethylsulfoxide (DMSO) to make 20 mM stock solutions on the day of drug addition and frozen at −20° C. Serial dilutions of these 20 mM stock solutions are made in complete growth medium such that 100 μL of these drug solutions in medium, of final concentrations equaling 0.01, 0.1, 1, 10 and 100 μM can be added to the cells in triplicate. Standard drugs whose anti-cancer activity has been well documented and which are regularly used are doxorubicin and SAHA.
as §2
(§4) Percent growth is calculated for each compound's concentration relative to the control and zero measurement wells (To; viability right before compound addition). […]

The subject of another test is SF-268. Kind of test: Anti-cancer screen (MTT), SF-268. Type of test: cell-based. How it is done: [The source words this procedure for another cell line and reports this cell line under the same test.] as §1, §3, §2, §4
The subject of a further test is TNF-α. In words: In vitro measurement of TNF-α in human PBMC. Format: cell-based. To be noted: at 0.1 μM, LPS. How it is done: In Vitro Measurement of Tumor Necrosis Factor Alpha (TNF-α)
This assay determines the effect of test compounds on the production of TNF-α in human Peripheral Blood Mononuclear Cells (PBMC). Compounds were tested for their ability to inhibit the activity of TNF-α in human PBMC. PBMC were isolated from blood (from healthy volunteers) using BD Vacutainer CPT™ (Cell preparation tube, BD Bio Science) and suspended in RPMI medium (Physiol. Res. 52; 593-598, 2003). The test compounds were pre-incubated with PBMC (0.5 million/incubation well) for 15 minutes at 37° C. and then stimulated with Lipopolysaccharide (Escherichia coli: B4; 1 μg/ml) for 18 hours at 37° C. in 5% CO2. The levels of TNF-α in the cell culture medium were estimated using enzyme linked Immunosorbent assay performed in a 96 well format as per the procedure of the manufacturer (R&D Systems, Inc. 614 McKinley Place Nebr., Minneapolis, Minn. 55413, USA).

In the next test the target is T1, COX-2 (Homo sapiens, UniProt P35354).
T1 construct: Fresh blood was collected in tubes containing sodium heparin by vein puncture from healthy male volunteers; endogenous in cells; host or cells: human whole blood from healthy male volunteers, stimulated with LPS
T1 sequence (P35354 18-604): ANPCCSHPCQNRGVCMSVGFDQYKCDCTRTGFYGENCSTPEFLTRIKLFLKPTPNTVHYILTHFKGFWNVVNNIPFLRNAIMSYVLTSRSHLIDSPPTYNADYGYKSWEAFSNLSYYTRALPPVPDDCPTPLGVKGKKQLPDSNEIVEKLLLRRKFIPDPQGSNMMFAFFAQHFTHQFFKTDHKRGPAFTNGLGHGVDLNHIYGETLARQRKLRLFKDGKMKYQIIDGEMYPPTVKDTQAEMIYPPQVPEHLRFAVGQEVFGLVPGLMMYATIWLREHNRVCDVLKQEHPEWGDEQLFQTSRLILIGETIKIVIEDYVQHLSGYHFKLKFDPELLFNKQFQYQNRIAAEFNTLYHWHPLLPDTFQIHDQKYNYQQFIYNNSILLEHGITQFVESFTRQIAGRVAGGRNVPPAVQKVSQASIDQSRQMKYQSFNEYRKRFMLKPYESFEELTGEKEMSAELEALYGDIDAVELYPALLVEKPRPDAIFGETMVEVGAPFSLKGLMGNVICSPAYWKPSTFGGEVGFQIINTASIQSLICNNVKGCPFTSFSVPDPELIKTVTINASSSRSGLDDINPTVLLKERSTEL
In words: Human whole blood assay, COX-2 inhibition (PGE2 after LPS). Format: cell-based. Particulars: LPS stimulated. How it is done:
Human whole blood provides a protein and cell rich milieu appropriate for the study of biochemical efficacy of anti-inflammatory compounds such as selective COX-2 inhibitors. […] This is correlating with the observation that COX-2 inhibitors have no effect on prostaglandin E2 (PGE2) production in normal blood. These inhibitors were active only after incubation of human blood with lipopolysaccharide (LPS), which induces COX-2 production in the blood.
Fresh blood was collected in tubes containing sodium heparin by vein puncture from healthy male volunteers. […] Then test compounds (at various concentrations) or vehicle were added to blood. After that blood was stimulated with LPS B: 4 (10 μg/ml) and incubated for another 18 hours at 37° C. water bath. After which the blood was centrifuged, plasma was separated and stored at −80° C. (J. Pharmacol. Exp. Ther, 271, 1705, 1994; Proc. Natl. Acad. Sci. USA., 96, 7563, 1999). The plasma was assayed for PGE2 using Cayman ELISA kit as per the procedure outlined by the manufacturer (Cayman Chemicals, Ann Arbor, USA).

The next test relates to IL-1β. Kind of test: In vitro measurement of IL-1β in human PBMC. Format: cell-based. Particulars: Conc. 0.1 μM, LPS. Here is the method: (§5) In vitro Measurement of Interleukin-6 (IL-6) & Interleukin-1β (IL1β)
(§6) This assay determines the effect of test compounds on the production of IL-6 and IL1β in human PBMC (Physiol. Res. 52: 593-598, 2003). Compounds were tested for their ability to inhibit the activity of IL-6 and IL1β in human PBMC. PBMC were isolated from blood using BD Vacutainer CPT™ Cell preparation tube (BD Bio Science) and suspended in RPMI medium. The test compounds were preincubated with PBMC (0.5 million/incubation well) for 15 minutes at 37° C. and then stimulated with Lipopolysaccharide (Escherichia coli: B4; 1 μg/ml) for 18 hours at 37° C. in 5% CO2. The levels of IL-6 and IL1β in cell culture medium were estimated using enzyme linked Immunosorbent assay performed in a 96 well format as per the procedure of the manufacturer (R&D Systems, Inc. 614 McKinley Place Nebr., Minneapolis, Minn. 55413, USA).

A further test concerns IL-6. In words: In vitro measurement of IL-6 in human PBMC. Type of test: cell-based. To be noted: Conc. 0.1 μM, LPS. How it is done:
as §5, §6

The test system of test [1] is Carrageenan induced paw edema in rat. Kind of test: Carrageenan induced paw edema test in rat. Type of test: in vivo. Particulars: 5 mg/kg oral; male wistar rats; 3 hours after carrageenan. Here is the method: Carrageenan Induced Paw Edema Test in Rat
The carrageenan paw edema test was performed as described by Winter et al (Proc. Soc. Exp. Biol. Med, 111, 544, 1962). Male wistar rats were selected with body weights equivalent within each group. The rats were fasted for eighteen hours with free access to water. The rats were dosed orally with the test compound suspended in vehicle containing 0.25% carboxymethylcellulose and 0.5% Tween 80. The control rats were administered with vehicle alone. After an hour, the rats were injected with 0.1 ml of 1% Carrageenan solution in 0.9% saline into the sub-plantar surface of the right hind paw. Paw volume was measured using digital plethysmograph before and after 3 hours of carrageenan injection. The average of foot swelling in drug treated animals was compared with that of control animals. Anti-inflammatory activity was expressed as the percentage inhibition of edema compared with control group [Arzneim-Forsch/Drug Res., 43 (I), 1,44-50,1993; Otterness and Bliven, Laboratory Models for Testing NSAIDs, In Non-Steroidal Anti-Inflammatory Drugs, (J. Lombardino, ed. 1985)].
(In general: In the carrageenan paw model, swelling and tenderness develop within hours.)

A further test concerns MDAMB-231. In words: Anti-cancer screen (MTT), MDAMB-231. Type of test: cell-based. Particulars: Homo sapiens, MDA-MB-231, 48 hours. Here is the method:
as §1
Following 24 hours incubation, experimental drugs are added to the 96 well plates. […]
Cells are incubated with compounds for 48 hours followed by the addition of 10 μL 3-(4,5-Dimethyl-2-thiazolyl)-2,5-diphenyl-2H-tetrazolium (MTT) solution per well and a subsequent incubation at 37° C., 5% CO2, 95% air and 100% relative humidity, protected from light. […] Plates are agitated to ensure solution of the formazan crystals in dimethylsulphoxide and absorbance read at 570 nm.
as §4

A word on the inhibition: it is the share of the control response that was lost under treatment. Regarding `CCc1ccc(NC(=O)c2c(NC)nc(-c3ccc(SC)cc3)nc2SC)cc1` [Example 8, N-(4-Ethylphenyl)-4-(methylamino)-6-(methylthio)-2-[4-(methylthio)phenyl]pyrimidine-5-carboxamide], the “Percentage growth Lung NCI-H460” value in the test on NCI-H460 (Conc. 100 μM) is reported as 0%. The “Percentage growth Breast MCF-7” value with MCF-7 (Conc. 100 μM) was determined as 4%. The “Percentage growth CNS SF-268” value with SF-268 (Conc. 100 μM) stood at 1%. The same molecule returned an inhibition at 0.1 µM in the test with TNF-α of 27.8%.

In the case of `CNc1nc(-c2ccc(SC)cc2)nc(SC)c1C(=O)Nc1ccc(C)cc1` [Example 5, 4-(Methylamino)-N-(4-methylphenyl)-6-(methylthio)-2-[4-(methylthio)phenyl]pyrimidine-5-carboxamide], in the test with NCI-H460 (Conc. 50 μM), the “Percentage growth Lung NCI-H460” value turned out to be 48%. The “Percentage growth Breast MCF-7” value in the test on MCF-7 (Conc. 50 μM) amounted to 160%. Moreover, the “Percentage growth CNS SF-268” value in the test on SF-268 (Conc. 50 μM) is recorded as 106%. Further, at COX-2 (Conc. 0.25 μM), the inhibition at 0.25 µM is 36.8%. In the test with IL-1β, the “IL-1β Inhibition (%)” value was “Not active”. In the test on IL-6, this molecule registered an inhibition at 0.1 µM of 14.9%. Besides, the “Inhibition of edema (%) at 5 mg/kg” value in [1] was determined as 53.07%.

`CNc1nc(-c2ccc(SC)cc2)nc(SC)c1C(=O)Nc1ccc(C)c(C)c1` [Example 9, N-(3,4-Dimethylphenyl)-4-(methylamino)-6-(methylthio)-2-[4-(methylthio)phenyl]pyrimidine-5-carboxamide]: the “Percentage growth Lung NCI-H460” value with NCI-H460 (Conc. 100 μM) was found to be 0%. For the same molecule, the “Percentage growth Breast MCF-7” value in the test with MCF-7 (Conc. 100 μM) was 6%. Further, the “Percentage growth CNS SF-268” value with SF-268 (Conc. 100 μM) came to 5%. The molecule also yielded an inhibition at 10 µM against COX-2 (Conc. 10 μM) of 29.2%.

One may read the GI50 as the concentration at which growth is held to half of that of the control. Consider `CNc1nc(-c2ccncc2)nc(SC)c1C(=O)Nc1ccc(C)c(C)c1` [Example 25, N-(3,4-Dimethylphenyl)-4-(methylamino)-6-(methylthio)-2-pyridin-4-ylpyrimidine-5-carboxamide], for which the GI50 with NCI-H460 (Homo sapiens, NCI-H460, 48 hours, MTT) was 5.5 µM; in the test with MDAMB-231 it was 100 nM.

Source of the values: patent publication US7759350B2, “Pyrimidine carboxamides” (Orchid Research Laboratories Ltd., priority 2005, dated 2010).
